From patent US9034323B2, “Method for control of post-prandial glucose” (Halozyme, Inc., priority 2008, dated 2015)
Where two headings read alike, the source gives them in different places.

How the values were obtained:
[1] = tested on: dispersion of trypan blue dye; test: Trypan blue dye dispersion assay in mice (Example 9); assay type: in vivo, NCr nu/nu homozygous mice; conditions: for Dye Dispersion Areas: intradermal, trypan blue with 5 Units/mL Humulin insulin, enzyme 10 U/mL (Chondroitinase AC 1 U/mL, Strep lyase 100 U/mL), group mean; for increase in dye dispersion area compared to buffer only: mixed with trypan blue and Humulin insulin
Method: (§1) The ability of different hyaluronan degrading enzymes to act as a dispersion agent was assessed in vivo. A dispersion assay in mice was used to assess the ability of different hyaluronan degrading enzyme to act as dispersion agents of trypan blue, and also to assess the ability of the enzymes to enhance the efficacy of co-administered insulin in reducing blood glucose levels. The hyaluronan degrading enzymes assayed included rHuPH20, pegylated PH20 (PEG PH20), Hyal 1, Chondroitinase ABC, Chondroitinase AC and Streptomyces hyalurolyticus lyase. […] Both the area of dispersion of the trypan blue and the blood glucose levels were then measured. […] The ability of a low pH buffer (pH 4.5) to act as a dispersion agent also was examined.
(§2) Nine groups of NCr nu/nu homozygous mice, approximately 10 weeks of age and with body weights of 21-25 g, with 3 mice per group, were anesthetized by intraperitoneal injection of ketamine/xylazine (10:1 mixture in saline). […] The dispersion of the trypan blue dye was then measured by a caliper at 2.5, 5, 10, 15 and 20 minutes post injection. The dye dispersion area (mm^2) was calculated by multiplying the longest axis M1 (length of the dye front) and M2 (width of the dye front) by ¼π (M1M2×¼π). The blood glucose levels were measured using a glucometer at 0, 5, 10, 15 and 20 minutes

blood glucose = test: Blood glucose levels in mice after intradermal Humulin insulin with hyaluronan degrading enzymes (Example 9); assay type: in vivo, NCr nu/nu homozygous mice; conditions: for Blood Glucose Level: group mean
Method: as §1, §2

[2] = tested on: plasma glucose (glucose infusion rate to maintain 90-110 mg/dL); test: Glucose infusion rate (GIR) pharmacodynamics, Hyperinsulinemic-Euglycemic Clamp (Example 1a); assay type: in vivo, human; conditions: Mean
Method: The procedure consisted of initially obtaining the subject's weight and height and measuring the vital signs after resting in a sitting position for 5 minutes. Both arms were placed in heating pads to dilate the veins and IV catheters were then inserted. A catheter was placed into the antecubital vein of one arm for infusion of Dextrose 20% via two separate stop cocks. The other […] catheter was placed into the other arm for sampling of arterialized blood for glucose measurements. The heating pad can be removed from the glucose infusion site, but the retrograde catheter site was maintained at 65° C. An initial blood sample was obtained to measure baseline glucose 30 minutes before injection of the insulin preparations.

[3] = parameters: species or system Yucatan mini pigs; conditions: pig, in vivo; for tmax: sc
Method: The pharmacokinetics (PK) of regular insulin, when subcutaneously administered at two different concentrations, both alone and co-administered with rHuPH20, was assessed in the porcine model described in Example 10, above. A multiple dose 4-way crossover design study was conducted to compare the PK of regular insulin at concentrations of 20 and 100 U/mL, when administered alone, to the same two concentrations after co-administration with rHuPH20. In each case, a total of 0.2 U/kg of insulin was administered.
Four test articles were prepared for dosing. […] The Insulin-PH20 U100 test article contained 3.69 mg/mL (100 U/mL) regular insulin (Lot # SIHR107; Diosynth Biotechnologies) and 20 μg/mL (approximately 2400 U/mL) rHuPH20 in 25 mM Tris, 120 mM NaCl, 0.01% Polysorbate 80, pH 7.3.
The group assignment was maintained for cycles 1 and 2.
The serum IRI concentrations were determined for each serum sample by interpolation from a standard curve using StatLIA® assay analysis software (Brendan Technologies, Carlsbad, Calif.). […] These baselines were then subtracted from the actual IRI concentrations measured at each timepoint to determine the baseline-adjusted IRI concentration.
Serum IRI versus time data were modeled by non-compartmental analysis using WinNonlin Professional model 200 (Version 5.2, Pharsight Corp., Mountain View, Calif.) and the PK parameters calculated. […] All analyses were performed using a mixed model with fixed effects for treatment. A compound symmetric covariance matrix among repeated observations for each animal was assumed. Analyses for Cmax and all AUC endpoints were performed using log-transformed values with values of zero replaced by 1 prior to log transformation (zero on the log scale). The time based endpoints were analyzed on the original linear scale.
N=16 pigs unless otherwise noted.

[4] = background, cited from earlier work
[5] = 5 min post injection, intradermal with 5 Units/mL Humulin insulin, enzyme 10 U/mL (Chondroitinase AC 1 U/mL, Strep lyase 100 U/mL)
[6] = 10 min post injection, intradermal with 5 Units/mL Humulin insulin, enzyme 10 U/mL (Chondroitinase AC 1 U/mL, Strep lyase 100 U/mL)
[7] = 15 min post injection, intradermal with 5 Units/mL Humulin insulin, enzyme 10 U/mL (Chondroitinase AC 1 U/mL, Strep lyase 100 U/mL)
[8] = 20 min post injection, intradermal with 5 Units/mL Humulin insulin, enzyme 10 U/mL (Chondroitinase AC 1 U/mL, Strep lyase 100 U/mL)

## Chondroitinase ABC
[1]; 5 min post injection
  Dye Dispersion Areas: 75.06 mm^2
[1]; 5 minutes after injection
  average dispersion area of trypan blue dye: ~75 mm^2
[1]; 10 min post injection
  Dye Dispersion Areas: 78.60 mm^2
[1]; 10 minutes after injection
  average dispersion area of trypan blue dye: ~79 mm^2
[1]; 15 min post injection
  Dye Dispersion Areas: 81.44 mm^2
[1]; 15 minutes after injection
  average dispersion area of trypan blue dye: ~81 mm^2
[1]; 20 min post injection
  Dye Dispersion Areas: 87.85 mm^2
[1]; 20 minutes after injection
  average dispersion area of trypan blue dye: ~88 mm^2
[1]; […] after injection
  average dispersion area of trypan blue dye: about 57 mm^2
[1]; […] post injection
  Dye Dispersion Areas: 56.85 mm^2
[1]
  increase in dye dispersion area compared to buffer only: significant increase
Blood glucose; 0 min (prior to injection)
  Blood Glucose Level: 129.67 mg/dL
Blood glucose; [5]
  Blood Glucose Level: 123.67 mg/dL
Blood glucose; [6]
  Blood Glucose Level: 65.00 mg/dL
Blood glucose; [7]
  Blood Glucose Level: 44.67 mg/dL
Blood glucose; [8]
  Blood Glucose Level: 21.00 mg/dL
Blood glucose; co-administered with Humulin insulin
  reduction of blood glucose levels compared with Humulin insulin alone: appeared to reduce levels even faster

## Humalog ® alone
[2]; Dosing Sequence 1
  GIR AUC 0-60 min: 1910 min * mL/hr
  GIR AUC 0-120 min: 9860 min * mL/hr
  GIR AUC 0-180 min: 20700 min * mL/hr
  GIR AUC 0-240 min: 32580 min * mL/hr
  GIR AUC 0-360 min: 51650 min * mL/hr
  tmax: 185
[2]; Dosing Sequence 2
  GIR AUC 0-60 min: 2260 min * mL/hr
  GIR AUC 0-120 min: 9670 min * mL/hr
  GIR AUC 0-180 min: 19220 min * mL/hr
  GIR AUC 0-240 min: 29120 min * mL/hr
  GIR AUC 0-360 min: 44730 min * mL/hr
  tmax: 200
[2]; Dosing Sequence all
  GIR AUC 0-60 min: 2080 min * mL/hr
  GIR AUC 0-120 min: 9760 min * mL/hr
  GIR AUC 0-180 min: 19960 min * mL/hr
  GIR AUC 0-240 min: 30850 min * mL/hr
  GIR AUC 0-360 min: 48190 min * mL/hr
  tmax: 193

## Insulin 20 U
[3]
  tmax: 0.95 ± 0.7 h

## Insulin 100 U
[3]
  tmax: 1.07 ± 0.817 h

## Insulin U20: Humulin R insulin diluted 1:5 with sterile diluent to 20 U/mL
[3]
  AUC0-15: 80 pmol·min/L
  AUC0-30: 791 pmol·min/L
  AUClast: 20,820 pmol×min/L
  tmax: 0.95 h

## Insulin U100: Undiluted Humulin R insulin, 100 U/mL
[3]
  AUC0-15: 20 pmol·min/L
  AUC0-30: 222 pmol·min/L
  AUClast: 9,021 pmol×min/L
  tmax: 1.07 h

## detemir: Long-lasting insulin, an analog
[4]
  Duration: 28 h
  Onset: 4 to 6 h
  Peak: 18 to 28 h

## insulin glargine
[4]
  Duration: 28 h
  Onset: 4 to 6 h
  Peak: 18 to 28 h

## insulin glulisine
[4]
  Duration: 3 to 4 h
  Peak: 0.75 to 1.5 h
[4]; subcutaneous insulin
  Onset: 0.083 to 0.25 h

B1: Hyal I (protein, UniProt Q12794 22-435, looked up)
Hyaluronidase-1: FRGPLLPNRPFTTVWNANTQWCLERHGVDVDVSVFDVVANPGQTFRGPDMTIFYSSQLGTYPYYTPTGEPVFGGLPQNASLIAHLARTFQDILAAIPAPDFSGLAVIDWEAWRPRWAFNWDTKDIYRQRSRALVQAQHPDWPAPQVEAVAQDQFQGAARAWMAGTLQLGRALRPRGLWGFYGFPDCYNYDFLSPNYTGQCPSGIRAQNDQLGWLWGQSRALYPSIYMPAVLEGTGKSQMYVQHRVAEAFRVAVAAGDPNLPVLPYVQIFYDTTNHFLPLDELEHSLGESAAQGAAGVVLWVSWENTRTKESCQAIKEYMDTTLGPFILNVTSGALLCSQALCSGHGRCVRRTSHPKALLLLNPASFSIQLTPGGGPLSLRGALSLEDQAQMAVEFKCRCYPGWQAPWCERKSMW
[1]; 5 min post injection
  Dye Dispersion Areas: 36.27 mm^2
[1]; 10 min post injection
  Dye Dispersion Areas: 39.60 mm^2
[1]; 15 min post injection
  Dye Dispersion Areas: 46.41 mm^2
[1]; 20 min post injection
  Dye Dispersion Areas: 48.21 mm^2
[1]; […] post injection
  Dye Dispersion Areas: 31.53 mm^2
Blood glucose; 0 min (prior to injection)
  Blood Glucose Level: 155.67 mg/dL
Blood glucose; [5]
  Blood Glucose Level: 201.33 mg/dL
Blood glucose; [6]
  Blood Glucose Level: 144.33 mg/dL
Blood glucose; [7]
  Blood Glucose Level: 77.00 mg/dL
Blood glucose; [8]
  Blood Glucose Level: 52.67 mg/dL

B2: Hyal 1: Hyaluronan degrading enzyme; acid-active human hyaluronidase (protein, listed as Homo sapiens)
chain: MAAHLLPICALFLTLLDMAQGFRGPLLPNRPFTTVWNANTQWCLERHGVDVDVSVFDVVANPGQTFRGPDMTIFYSSQLGTYPYYTPTGEPVFGGLPQNASLIAHLARTFQDILAAIPAPDFSGLAVIDWEAWRPRWAFNWDTKDIYRQRSRALVQAQHPDWPAPQVEAVAQDQFQGAARAWMAGTLQLGRALRPRGLWGFYGFPDCYNYDFLSPNYTGQCPSGIRAQNDQLGWLWGQSRALYPSIYMPAVLEGTGKSQMYVQHRVAEAFRVAVAAGDPNLPVLPYVQIFYDTTNHFLPLDELEHSLGESAAQGAAGVVLWVSWENTRTKESCQAIKEYMDTTLGPFILNVTSGALLCSQALCSGHGRCVRRTSHPKALLLLNPASFSIQLTPGGGPLSLRGALSLEDQAQMAVEFKCRCYPGWQAPWCERKSMW
modifications: Hyaluronidase-1 [Precursor]
[1]
  increase in dye dispersion area compared to buffer only: no statistically significant increase
